{"source": "patent US20160367623A1", "about": "“AGONISTS OF GUANYLATE CYCLASE USEFUL FOR THE TREATMENT OF GASTROINTESTINAL DISORDERS, INFLAMMATION, CANCER AND OTHER DISORDERS” (priority 2015, published 2016)", "test_system": "patients with chronic idiopathic constipation (CIC)", "test": "Second phase 3 CIC trial: change from baseline in CSBMs/week", "type": "in vivo, human", "conditions": "MRA", "key": {"[1]": {"conditions": "Week 3, 6 mg, ITT Population-Excluding Duplicate Patients"}, "[2]": {"conditions": "Week 4, 3 mg, ITT Population-Excluding Duplicate Patients"}, "[3]": {"conditions": "Week 4, 6 mg, ITT Population-Excluding Duplicate Patients"}, "[4]": {"conditions": "Week 5, 3 mg, ITT Population-Excluding Duplicate Patients"}, "[5]": {"conditions": "Week 5, 6 mg, ITT Population-Excluding Duplicate Patients"}, "[6]": {"conditions": "Week 6, 3 mg, ITT Population-Excluding Duplicate Patients"}, "[7]": {"conditions": "Week 6, 6 mg, ITT Population-Excluding Duplicate Patients"}, "[8]": {"conditions": "Week 7, 3 mg, ITT Population-Excluding Duplicate Patients"}, "[9]": {"conditions": "Week 7, 6 mg, ITT Population-Excluding Duplicate Patients"}, "[10]": {"conditions": "Week 8, 3 mg, ITT Population-Excluding Duplicate Patients"}}, "note": "Bridge positions count the residues as written; N and C are the ends. Ends that are not written are not given here."}
{"substance": "Asn^1-Asp^2-Glu^3-Cys^4-Glu^5-Leu^6-Cys^7-Val^8-Asn^9-Val^10-Ala^11-Cys^12-Thr^13-Gly^14-Cys^15-Leu^16 (NDECELCVNVACTGCL; disulfide 4-12, 7-15) [Plecanatide, uroguanylin analogue, guanylate cyclase-C agonist; (C4:C12, C7:C15) bicycle peptide]", "values": [{"measurement": "Change from Baseline in CSBMs, Mean (SD)", "setting": "Week 3, 6 mg, ITT Population", "result": "1.82 (2.949) CSBMs/week"}, {"measurement": "Change from Baseline in CSBMs, Difference from Placebo", "setting": "[1]", "result": 0.61, "unit": "CSBMs/week"}, {"measurement": "Change from Baseline in CSBMs, LS Mean (SE)", "setting": "[1]", "result": "1.83 (0.154) CSBMs/week"}, {"measurement": "Change from Baseline in CSBMs, Mean (SD)", "setting": "[1]", "result": "1.83 (2.958) CSBMs/week"}, {"measurement": "Change from Baseline in CSBMs, Mean (SD)", "setting": "Week 3, Active Combined, ITT Population-Excluding Duplicate Patients", "result": "1.89 (3.049) CSBMs/week"}, {"measurement": "Change from Baseline in CSBMs, Mean (SD)", "setting": "Week 3, Active Combined, ITT Population", "result": "1.88 (3.032) CSBMs/week"}, {"measurement": "Change from Baseline in CSBMs, Difference from Placebo", "setting": "Week 4, 3 mg, ITT Population", "result": 0.91, "unit": "CSBMs/week"}, {"measurement": "Change from Baseline in CSBMs, LS Mean (SE)", "setting": "Week 4, 3 mg, ITT Population", "result": "2.16 (0.153) CSBMs/week"}, {"measurement": "Change from Baseline in CSBMs, Mean (SD)", "setting": "Week 4, 3 mg, ITT Population", "result": "2.19 (3.395) CSBMs/week"}, {"measurement": "Change from Baseline in CSBMs, Difference from Placebo", "setting": "[2]", "result": 0.92, "unit": "CSBMs/week"}, {"measurement": "Change from Baseline in CSBMs, LS Mean (SE)", "setting": "[2]", "result": "2.20 (0.156) CSBMs/week"}, {"measurement": "Change from Baseline in CSBMs, Mean (SD)", "setting": "[2]", "result": "2.22 (3.418) CSBMs/week"}, {"measurement": "Change from Baseline in CSBMs, Difference from Placebo", "setting": "Week 4, 6 mg, ITT Population", "result": 0.75, "unit": "CSBMs/week"}, {"measurement": "Change from Baseline in CSBMs, LS Mean (SE)", "setting": "Week 4, 6 mg, ITT Population", "result": "2.00 (0.152) CSBMs/week"}, {"measurement": "Change from Baseline in CSBMs, Mean (SD)", "setting": "Week 4, 6 mg, ITT Population", "result": "2.03 (3.243) CSBMs/week"}, {"measurement": "Change from Baseline in CSBMs, Difference from Placebo", "setting": "[3]", "result": 0.75, "unit": "CSBMs/week"}, {"measurement": "Change from Baseline in CSBMs, LS Mean (SE)", "setting": "[3]", "result": "2.02 (0.154) CSBMs/week"}, {"measurement": "Change from Baseline in CSBMs, Mean (SD)", "setting": "[3]", "result": "2.03 (3.254) CSBMs/week"}, {"measurement": "Change from Baseline in CSBMs, Mean (SD)", "setting": "Week 4, Active Combined, ITT Population-Excluding Duplicate Patients", "result": "2.13 (3.335) CSBMs/week"}, {"measurement": "Change from Baseline in CSBMs, Mean (SD)", "setting": "Week 4, Active Combined, ITT Population", "result": "2.11 (3.318) CSBMs/week"}, {"measurement": "Change from Baseline in CSBMs, Difference from Placebo", "setting": "Week 5, 3 mg, ITT Population", "result": 0.84, "unit": "CSBMs/week"}, {"measurement": "Change from Baseline in CSBMs, LS Mean (SE)", "setting": "Week 5, 3 mg, ITT Population", "result": "2.31 (0.154) CSBMs/week"}, {"measurement": "Change from Baseline in CSBMs, Mean (SD)", "setting": "Week 5, 3 mg, ITT Population", "result": "2.39 (3.375) CSBMs/week"}, {"measurement": "Change from Baseline in CSBMs, Difference from Placebo", "setting": "[4]", "result": 0.85, "unit": "CSBMs/week"}, {"measurement": "Change from Baseline in CSBMs, LS Mean (SE)", "setting": "[4]", "result": "2.35 (0.157) CSBMs/week"}, {"measurement": "Change from Baseline in CSBMs, Mean (SD)", "setting": "[4]", "result": "2.43 (3.395) CSBMs/week"}, {"measurement": "Change from Baseline in CSBMs, Difference from Placebo", "setting": "Week 5, 6 mg, ITT Population", "result": 0.48, "unit": "CSBMs/week"}, {"measurement": "Change from Baseline in CSBMs, LS Mean (SE)", "setting": "Week 5, 6 mg, ITT Population", "result": "1.95 (0.153) CSBMs/week"}, {"measurement": "Change from Baseline in CSBMs, Mean (SD)", "setting": "Week 5, 6 mg, ITT Population", "result": "1.99 (3.019) CSBMs/week"}, {"measurement": "Change from Baseline in CSBMs, Difference from Placebo", "setting": "[5]", "result": 0.46, "unit": "CSBMs/week"}, {"measurement": "Change from Baseline in CSBMs, LS Mean (SE)", "setting": "[5]", "result": "1.97 (0.154) CSBMs/week"}, {"measurement": "Change from Baseline in CSBMs, Mean (SD)", "setting": "[5]", "result": "1.99 (3.025) CSBMs/week"}, {"measurement": "Change from Baseline in CSBMs, Mean (SD)", "setting": "Week 5, Active Combined, ITT Population-Excluding Duplicate Patients", "result": "2.20 (3.216) CSBMs/week"}, {"measurement": "Change from Baseline in CSBMs, Mean (SD)", "setting": "Week 5, Active Combined, ITT Population", "result": "2.18 (3.202) CSBMs/week"}, {"measurement": "Change from Baseline in CSBMs, Difference from Placebo", "setting": "Week 6, 3 mg, ITT Population", "result": 1.01, "unit": "CSBMs/week"}, {"measurement": "Change from Baseline in CSBMs, LS Mean (SE)", "setting": "Week 6, 3 mg, ITT Population", "result": "2.32 (0.155) CSBMs/week"}, {"measurement": "Change from Baseline in CSBMs, Mean (SD)", "setting": "Week 6, 3 mg, ITT Population", "result": "2.43 (3.548) CSBMs/week"}, {"measurement": "Change from Baseline in CSBMs, Difference from Placebo", "setting": "[6]", "result": 1.01, "unit": "CSBMs/week"}, {"measurement": "Change from Baseline in CSBMs, LS Mean (SE)", "setting": "[6]", "result": "2.35 (0.158) CSBMs/week"}, {"measurement": "Change from Baseline in CSBMs, Mean (SD)", "setting": "[6]", "result": "2.45 (3.571) CSBMs/week"}, {"measurement": "Change from Baseline in CSBMs, Difference from Placebo", "setting": "Week 6, 6 mg, ITT Population", "result": 0.92, "unit": "CSBMs/week"}, {"measurement": "Change from Baseline in CSBMs, LS Mean (SE)", "setting": "Week 6, 6 mg, ITT Population", "result": "2.24 (0.153) CSBMs/week"}, {"measurement": "Change from Baseline in CSBMs, Mean (SD)", "setting": "Week 6, 6 mg, ITT Population", "result": "2.29 (3.384) CSBMs/week"}, {"measurement": "Change from Baseline in CSBMs, Difference from Placebo", "setting": "[7]", "result": 0.93, "unit": "CSBMs/week"}, {"measurement": "Change from Baseline in CSBMs, LS Mean (SE)", "setting": "[7]", "result": "2.27 (0.155) CSBMs/week"}, {"measurement": "Change from Baseline in CSBMs, Mean (SD)", "setting": "[7]", "result": "2.31 (3.391) CSBMs/week"}, {"measurement": "Change from Baseline in CSBMs, Mean (SD)", "setting": "Week 6, Active Combined, ITT Population-Excluding Duplicate Patients", "result": "2.38 (3.478) CSBMs/week"}, {"measurement": "Change from Baseline in CSBMs, Mean (SD)", "setting": "Week 6, Active Combined, ITT Population", "result": "2.36 (3.464) CSBMs/week"}, {"measurement": "Change from Baseline in CSBMs, Difference from Placebo", "setting": "Week 7, 3 mg, ITT Population", "result": 0.81, "unit": "CSBMs/week"}, {"measurement": "Change from Baseline in CSBMs, LS Mean (SE)", "setting": "Week 7, 3 mg, ITT Population", "result": "2.29 (0.155) CSBMs/week"}, {"measurement": "Change from Baseline in CSBMs, Mean (SD)", "setting": "Week 7, 3 mg, ITT Population", "result": "2.40 (3.413) CSBMs/week"}, {"measurement": "Change from Baseline in CSBMs, Difference from Placebo", "setting": "[8]", "result": 0.83, "unit": "CSBMs/week"}, {"measurement": "Change from Baseline in CSBMs, LS Mean (SE)", "setting": "[8]", "result": "2.33 (0.158) CSBMs/week"}, {"measurement": "Change from Baseline in CSBMs, Mean (SD)", "setting": "[8]", "result": "2.44 (3.435) CSBMs/week"}, {"measurement": "Change from Baseline in CSBMs, Difference from Placebo", "setting": "Week 7, 6 mg, ITT Population", "result": 0.82, "unit": "CSBMs/week"}, {"measurement": "Change from Baseline in CSBMs, LS Mean (SE)", "setting": "Week 7, 6 mg, ITT Population", "result": "2.31 (0.154) CSBMs/week"}, {"measurement": "Change from Baseline in CSBMs, Mean (SD)", "setting": "Week 7, 6 mg, ITT Population", "result": "2.38 (3.361) CSBMs/week"}, {"measurement": "Change from Baseline in CSBMs, Difference from Placebo", "setting": "[9]", "result": 0.83, "unit": "CSBMs/week"}, {"measurement": "Change from Baseline in CSBMs, LS Mean (SE)", "setting": "[9]", "result": "2.34 (0.155) CSBMs/week"}, {"measurement": "Change from Baseline in CSBMs, Mean (SD)", "setting": "[9]", "result": "2.40 (3.369) CSBMs/week"}, {"measurement": "Change from Baseline in CSBMs, Mean (SD)", "setting": "Week 7, Active Combined, ITT Population-Excluding Duplicate Patients", "result": "2.42 (3.399) CSBMs/week"}, {"measurement": "Change from Baseline in CSBMs, Mean (SD)", "setting": "Week 7, Active Combined, ITT Population", "result": "2.39 (3.384) CSBMs/week"}, {"measurement": "Change from Baseline in CSBMs, Difference from Placebo", "setting": "Week 8, 3 mg, ITT Population", "result": 1.01, "unit": "CSBMs/week"}, {"measurement": "Change from Baseline in CSBMs, LS Mean (SE)", "setting": "Week 8, 3 mg, ITT Population", "result": "2.52 (0.156) CSBMs/week"}, {"measurement": "Change from Baseline in CSBMs, Mean (SD)", "setting": "Week 8, 3 mg, ITT Population", "result": "2.67 (3.747) CSBMs/week"}, {"measurement": "Change from Baseline in CSBMs, Difference from Placebo", "setting": "[10]", "result": 1.06, "unit": "CSBMs/week"}, {"measurement": "Change from Baseline in CSBMs, LS Mean (SE)", "setting": "[10]", "result": "2.56 (0.158) CSBMs/week"}, {"measurement": "Change from Baseline in CSBMs, Mean (SD)", "setting": "[10]", "result": "2.68 (3.765) CSBMs/week"}, {"measurement": "Change from Baseline in CSBMs, Difference from Placebo", "setting": "Week 8, 6 mg, ITT Population", "result": 0.82, "unit": "CSBMs/week"}, {"measurement": "Change from Baseline in CSBMs, LS Mean (SE)", "setting": "Week 8, 6 mg, ITT Population", "result": "2.33 (0.154) CSBMs/week"}]}
